{
  "source": "paper PMC9231303",
  "about": "“Pharmacokinetic–Pharmacometabolomic Approach in Early-Phase Clinical Trials: A Way Forward for Targeted Therapy in Type 2 Diabetes” (Pharmaceutics, 2022)",
  "key": {"[1]": {"system": "human metabolic pathways (KEGG)", "assay": "Untargeted urine pharmacometabolomics (pre-dose U0 versus U1 0–4 h, U2 4–8 h, U3 8–12 h, n = 6), mummichog functional pathway analysis", "format": "in vivo", "settings": "urine collections 0–12 h"}, "clinical": {"assay": "clinical", "settings": "human, in vivo"}, "[2]": {"settings": "cited from earlier work"}, "[3]": {"assay": "Clinical safety, adverse event and glucose monitoring after single-dose metformin 1000 mg in healthy subjects", "format": "in vivo, human", "description": "Three cohorts were planned to ensure sufficient clinical ward staff and space to monitor every subject on the dosing day. Subjects were housed in a controlled environment, and standardized meals were provided to each cohort. The blood samples were collected using an ethylenediaminetetraacetic acid (EDTA) tube and centrifuged at 10,000 rpm for 10 min at 4. The plasma samples together with the urine samples were kept in a -80 °C freezer in cryovials for further analysis. The subjects were monitored for adverse events until seven days post-dose. Pre-dose and peak-concentration plasma samples were used for untargeted pharmacometabolomic analysis to determine the treatment metabotypes."}, "[4]": {"system": "human metabolic pathways (KEGG)", "assay": "Untargeted plasma pharmacometabolomics dataset A (pre-dose versus T2.5, 3, 3.5 h, n = 6), mummichog functional pathway analysis", "settings": "time course 0–12 h"}},
  "note": "Values joined by “and” are separate entries in the source; they are usually repeats but may differ in a detail not shown here. Equal values may be shown once. “Also recorded” adds a separate entry of the source. Read-outs that look alike come from different tables or passages of the source.",
  "data": [
    {"smiles": "CN(C)C(=N)N=C(N)N", "note": "[metformin]", "values": [
      {"measurement": "metformin in urine (untargeted LCMS, positive mode)", "setting": "[1]", "value": "achieved high concentration in the first 8 h and a slight reduction during 8–12 h"},
      {"measurement": "Cmax", "setting": "clinical; 1000 mg, subject S4", "value": 1430, "unit": "ng/mL"},
      {"measurement": "Cmax", "setting": "clinical; 1000 mg, subject S9", "value": 1170, "unit": "ng/mL"},
      {"measurement": "Tmax", "setting": "clinical; male", "value": 2.65, "unit": "h"},
      {"measurement": "AUC(0-t)", "setting": "clinical; male, 1000 mg", "value": 10900, "unit": "ng·h/mL"},
      {"measurement": "k el", "setting": "clinical; male, Ke", "value": "3.97e-05", "unit": "s⁻¹"},
      {"measurement": "AUC", "setting": "clinical; male, po, 1000 mg", "value": 9510, "unit": "ng·h/mL"},
      {"measurement": "AUC(0-t)", "setting": "clinical; male, po, 1000 mg, AUC_0–24", "value": 8960, "unit": "ng·h/mL"},
      {"measurement": "peak plasma concentration", "setting": "[2]; diabetic patients, 1000 mg twice daily chronically", "value": "approximately 40 µM"},
      {"measurement": "plasma concentration reached within three hours", "setting": "[2]; oral 1000 mg, non-diabetic subjects", "value": 25, "unit": "µM"},
      {"measurement": "Glucose", "setting": "[3]; 4 hours post-dose (before lunch), mean of 17 subjects", "value": 4.7, "unit": "mmol/L"},
      {"measurement": "Glucose", "setting": "[3]; 4 hours post-dose, subject S01", "value": 5.0, "unit": "mmol/L"},
      {"measurement": "Glucose", "setting": "[3]; 4 hours post-dose, subject S02", "value": 4.7, "unit": "mmol/L"},
      {"measurement": "Glucose", "setting": "[3]; 4 hours post-dose, subject S04", "value": 4.8, "unit": "mmol/L"},
      {"measurement": "Glucose", "setting": "[3]; 4 hours post-dose, subject S05", "value": 5.2, "unit": "mmol/L"},
      {"measurement": "Glucose", "setting": "[3]; 4 hours post-dose, subject S06", "value": 4.6, "unit": "mmol/L"},
      {"measurement": "Glucose", "setting": "[3]; 4 hours post-dose, subject S07", "value": 4.7, "unit": "mmol/L"},
      {"measurement": "Glucose", "setting": "[3]; 4 hours post-dose, subject S08", "value": 4.3, "unit": "mmol/L"},
      {"measurement": "Glucose", "setting": "[3]; 4 hours post-dose, subject S09", "value": 4.4, "unit": "mmol/L"},
      {"measurement": "Glucose", "setting": "[3]; 4 hours post-dose, subject S10", "value": 4.9, "unit": "mmol/L"},
      {"measurement": "Glucose", "setting": "[3]; 4 hours post-dose, subject S11", "value": 4.7, "unit": "mmol/L"},
      {"measurement": "Glucose", "setting": "[3]; 4 hours post-dose, subject S12", "value": 5.2, "unit": "mmol/L"},
      {"measurement": "Glucose", "setting": "[3]; 4 hours post-dose, subject S13", "value": 4.4, "unit": "mmol/L"},
      {"measurement": "Glucose", "setting": "[3]; 4 hours post-dose, subject S14", "value": 4.7, "unit": "mmol/L"},
      {"measurement": "Glucose", "setting": "[3]; 4 hours post-dose, subject S15", "value": 4.4, "unit": "mmol/L"},
      {"measurement": "Glucose", "setting": "[3]; 4 hours post-dose, subject S16", "value": 4.9, "unit": "mmol/L"},
      {"measurement": "Glucose", "setting": "[3]; 4 hours post-dose, subject S17", "value": 4.6, "unit": "mmol/L"},
      {"measurement": "Glucose", "setting": "[3]; 4 hours post-dose, subject S18", "value": 3.9, "unit": "mmol/L"},
      {"measurement": "clinical laboratory characteristics", "setting": "[3]; screening versus follow-up, clinician judgement", "value": "within normal range and considered no significant changes"},
      {"measurement": "adverse drug reaction", "setting": "[3]; single dose 1000 mg, 17 healthy subjects, monitored until seven days post-dose", "value": "One subject experienced abdominal pain after the dosing; also recorded: stomach cramps; also recorded: one side effect was observed"},
      {"measurement": "metformin intensity in plasma (untargeted LCMS, positive mode)", "setting": "[4]", "value": "a reducing trend happened at 8 h and a return to zero at 12 h"},
      {"measurement": "Tmax", "setting": "male, human, in vivo", "value": 3, "unit": "h"},
      {"measurement": "T_max", "setting": "male, human, in vivo, po", "value": "2.5 (2.5–3.0) h"},
      {"measurement": "CL", "setting": "male, human, in vivo, po, 1000 mg", "value": "1884 (32.3) mL/min"},
      {"measurement": "Tmax", "setting": "subject S6", "value": 2, "unit": "h"},
      {"measurement": "Tmax", "setting": "subject S8", "value": "3.5 h and 2 h"},
      {"measurement": "Cmax", "setting": "subject S10", "value": 1391.3, "unit": "ng/mL"},
      {"measurement": "Tmax", "setting": "subject S15", "value": 4, "unit": "h"},
      {"measurement": "Tmax", "setting": "subject S16", "value": 2, "unit": "h"},
      {"measurement": "Cmax", "setting": "subject S17", "value": 1381.7, "unit": "ng/mL"},
      {"measurement": "Tmax", "setting": "subject S17", "value": 4, "unit": "h"}
    ]}
  ]
}
